According to ChEMBL document CHEMBL1147193, “New 5-substituted thiazolo[3,2-b][1,2,4]triazol-6-ones: synthesis and anticancer evaluation” (2007):

Key:
Format in all cases: functional
786-0 = assay: Growth inhibition of human 786-0 cells after 48 hrs by SRB protein assay; details: 786-0, 48 h; for TGI: read-out: Log TGI (converted)
A498 = assay: Growth inhibition of human A498 cells after 48 hrs by SRB protein assay; details: A498, 48 h; for TGI: read-out: Log TGI (converted)
BT-549 = assay: Growth inhibition of human BT549 cells after 48 hrs by SRB protein assay; details: BT-549, 48 h
HL-60 = assay: Growth inhibition of human HL60 cells after 48 hrs by SRB protein assay; details: HL-60, 48 h; for TGI: read-out: Log TGI (converted)
K562 = assay: Growth inhibition of human K562 cells after 48 hrs by SRB protein assay; details: K562, 48 h; for TGI: read-out: Log TGI (converted)
MOLT-4 = assay: Growth inhibition of human MOLT4 cells after 48 hrs by SRB protein assay; details: MOLT-4, 48 h; for TGI: read-out: Log TGI (converted)
SR = assay: Growth inhibition of human SR cells after 48 hrs by SRB protein assay; details: for TGI: read-out: Log TGI (converted)
EKVX = assay: Growth inhibition of human EKVX cells after 48 hrs by SRB protein assay; details: for TGI: read-out: Log TGI (converted)
HOP-62 = assay: Growth inhibition of human HOP62 cells after 48 hrs by SRB protein assay; details: HOP-62, 48 h; for TGI: read-out: Log TGI (converted)
NCI-H226 = assay: Growth inhibition of human NCI-H226 cells after 48 hrs by SRB protein assay; details: NCI-H226, 48 h; for TGI: read-out: Log TGI (converted)
NCI-H522 = assay: Growth inhibition of human NCI-H522 cells after 48 hrs by SRB protein assay; details: NCI-H522, 48 h; for TGI: read-out: Log TGI (converted)
HCT-116 = assay: Growth inhibition of human HCT116 cells after 48 hrs by SRB protein assay; details: HCT-116, 48 h; for TGI: read-out: Log TGI (converted)
HT-29 = assay: Growth inhibition of human HT29 cells after 48 hrs by SRB protein assay; details: HT-29, 48 h; for TGI: read-out: Log TGI (converted)
SF-539 = assay: Growth inhibition of human SF539 cells after 48 hrs by SRB protein assay; details: SF-539, 48 h; for TGI: read-out: Log TGI (converted)
SNB-19 = assay: Growth inhibition of human SNB19 cells after 48 hrs by SRB protein assay; details: SNB-19, 48 h; for TGI: read-out: Log TGI (converted)
SNB-75 = assay: Growth inhibition of human SNB75 cells after 48 hrs by SRB protein assay; details: SNB-75, 48 h; for TGI: read-out: Log TGI (converted)
SK-MEL-2 = assay: Growth inhibition of human SK-MEL-2 cells after 48 hrs by SRB protein assay; details: SK-MEL-2, 48 h; for TGI: read-out: Log TGI (converted)
RXF 393 = assay: Growth inhibition of human RXF393 cells after 48 hrs by SRB protein assay; details: RXF 393, 48 h; for TGI: read-out: Log TGI (converted)
DU-145 = assay: Growth inhibition of human DU145 cells after 48 hrs by SRB protein assay; details: DU-145, 48 h; for TGI: read-out: Log TGI (converted)
NCI/ADR-RES = assay: Growth inhibition of human NCI/ADR-RES cells after 48 hrs by SRB protein assay; details: for TGI: read-out: Log TGI (converted)
T47D = assay: Growth inhibition of human T47D cells after 48 hrs by SRB protein assay; details: for TGI: read-out: Log TGI (converted)
NCI-H23 = assay: Growth inhibition of human NCI-H23 cells after 48 hrs by SRB protein assay; details: NCI-H23, 48 h

In the case of O=c1/c(=C/c2ccc(F)cc2)sc2ncnn12, the GI50 (786-0) is reported as 51.3 µM, the TGI (786-0) is reported as > 100 µM and the GI50 (A498) is reported as 61.7 µM. The TGI (A498) was > 100 µM, the GI50 (BT-549) was 42.7 µM and the TGI (BT-549; read-out: Log TGI (converted)) was 100 µM. For the same molecule, the GI50 (HL-60) was 6.46 µM, the TGI (HL-60) was > 100000 nM and the GI50 (K562) was 38.9 µM. The TGI (K562) was > 100 µM, the GI50 (MOLT-4) was 38.9 µM and the TGI (MOLT-4) was > 100 µM. The GI50 (SR) was 15.5 µM, the TGI (SR) was > 100 µM and the GI50 (EKVX) was 83.2 µM. For the same molecule, the TGI (EKVX) was > 100 µM, the GI50 (HOP-62) was 70.8 µM and the TGI (HOP-62) was > 100 µM. The GI50 (NCI-H226) was > 100 µM, the TGI (NCI-H226) was > 100 µM and the GI50 (NCI-H522) was 50.1 µM. For the same molecule, the TGI (NCI-H522) was > 100 µM, the GI50 (HCT-116) was 33.9 µM and the TGI (HCT-116) was > 100 µM. The GI50 (HT-29) was 45.7 µM, the TGI (HT-29) was > 100 µM and the GI50 (SF-539) was 30.2 µM. For the same molecule, the TGI (SF-539) was 93.3 µM, the GI50 (SNB-19) was 63.1 µM and the TGI (SNB-19) was > 100 µM. The GI50 (SNB-75) was 58.9 µM, the TGI (SNB-75) was > 100 µM and the GI50 (SK-MEL-2) was > 100 µM. It also gave a TGI (SK-MEL-2) of 51.3 µM, a GI50 (RXF 393) of 46.8 µM and a TGI (RXF 393) of 100 µM. For the same molecule, the GI50 (DU-145) was 39.8 µM, the TGI (DU-145) was > 100 µM and the GI50 (NCI/ADR-RES) was 38 µM. For the same molecule, the TGI (NCI/ADR-RES) was > 100 µM, the GI50 (T47D) was 91.2 µM and the TGI (T47D) was > 100 µM.
In the case of O=c1/c(=C/c2ccc(Cl)cc2)sc2ncnn12, the GI50 (786-0) is reported as 13.5 µM, the TGI (786-0) is reported as 28.8 µM and the GI50 (A498) is reported as 19.1 µM. It also gave a TGI (A498) of 33.1 µM, a GI50 (NCI-H23) of 17.8 µM and a TGI (NCI-H23; read-out: Log TGI (converted)) of 38 µM. It also gave a GI50 (HL-60) of 0.537 µM, a TGI (HL-60) of 2040 nM and a GI50 (K562) of 7.59 µM. The TGI (K562) was 28.8 µM, the GI50 (MOLT-4) was 1.62 µM and the TGI (MOLT-4) was 8.71 µM. The GI50 (SR) was 8.32 µM, the TGI (SR) was 33.9 µM and the GI50 (EKVX) was 14.5 µM. For the same molecule, the TGI (EKVX) was 33.9 µM, the GI50 (HOP-62) was 15.8 µM and the TGI (HOP-62) was 35.5 µM. It also gave a GI50 (NCI-H226) of 20 µM, a TGI (NCI-H226) of 55 µM and a GI50 (NCI-H522) of 5.37 µM. For the same molecule, the TGI (NCI-H522) was 18.6 µM, the GI50 (HCT-116) was 10.7 µM and the TGI (HCT-116) was 25.7 µM. It also gave a GI50 (HT-29) of 15.1 µM, a TGI (HT-29) of 58.9 µM and a GI50 (SF-539) of 10.2 µM. The TGI (SF-539) was 21.9 µM, the GI50 (SNB-19) was 16.2 µM and the TGI (SNB-19) was 32.4 µM. It also gave a GI50 (SNB-75) of 14.1 µM, a TGI (SNB-75) of 32.4 µM and a GI50 (SK-MEL-2) of 12.6 µM. The TGI (SK-MEL-2) was 28.2 µM, the GI50 (RXF 393) was 5.25 µM and the TGI (RXF 393) was 18.2 µM. It also gave a GI50 (DU-145) of 12.9 µM, a TGI (DU-145) of 32.4 µM and a GI50 (NCI/ADR-RES) of 26.3 µM. The TGI (NCI/ADR-RES) was 89.1 µM, the GI50 (T47D) was 21.4 µM and the TGI (T47D) was > 100 µM.
